Results published in US20250243464A1, “ENHANCED DIFFERENTIATION OF PANCREATIC ISLET CELLS” (Vertex Pharmaceuticals Incorporated, priority 2022, published 2025).

What was measured:
Sox17+/Oct4− cells = assay: Flow cytometry for Sox17 and Oct4 at S1C after amino acid supplementation in S1 of Protocol 2; assay type: cell-based; details: supplementation in S1 to final 200 μM aspartate, 300 μM glycine, 585 μM serine, Protocol 2, 0.3 L scale
Protocol: (§1) To determine whether supplementation of amino acids identified in Example 1 altered cellular differentiation outcomes, the following experiments were conducted. […] A control condition following Protocol 2 only was also performed.
The amino acid supplemented S1 base media were utilized for each S1 feed in a Protocol 2 differentiation at 0.3 L scale, alongside a control. At S1C, samples of cells were collected, stained with Sox17 and Oct4 and analyzed by flow cytometry.

PDX1+/NKX6.1− cells = assay: Flow cytometry for NKX6.1 and PDX1 at S3C after amino acid supplementation in S1; assay type: cell-based; details: supplementation in S1 to final 200 μM aspartate, 300 μM glycine, 585 μM serine
Protocol: as §1
At S3C, samples of the cells that were supplemented with different amino acids during S1C were collected and stained with NKX6.1 and PDX1 and analyzed using flow cytometry. […] In the control, 89.3% of cells were in PDX1+/NKX6.1-, while in aspartate supplemented samples 90% of cells were PDX1+/NKX6.1-(FIG. 6B).

PDX1+/NKX6.1+ cells = assay: Flow cytometry for NKX6.1 and PDX1 at S4C after amino acid supplementation in S1; assay type: cell-based; details: supplementation in S1 to final 200 μM aspartate, 300 μM glycine, 585 μM serine
Protocol: as §1
At S4C, samples of the cells that were supplemented with different amino acids during the S1C step were collected and stained with NKX6.1 and PDX1 and analyzed using flow cytometry.

[1] = tested on: ISL1+/NKX6.1+ (β-like) cells and ISL1+/NKX6.1− (α-like) cells; assay: Flow cytometry for NKX6.1 and ISL1 at S5C after amino acid supplementation in S1; assay type: cell-based; details: supplementation in Stage 1; for amount of SC-β-cells / SC-β-cell composition versus control: Stage 5 (S5C)
Protocol: as §1
(§2) At S5C, samples of the cells that were supplemented with different amino acids during S1C were collected and stained with NKX6.1 and ISL1 and analyzed using flow cytometry. […] To determine how amino acid supplementation affected yield, cell viability assays were performed.
(§3) In the next set of experiments, different combinations of amino acids were tested for their effects on yield and β-cell composition. […] The control group only received treatment with Protocol 2. […] The amino acid supplemented S1 base media were utilized for each S1 feed in a Protocol 2 differentiation at 0.3 L scale, alongside a control. At S5C, samples of cells were collected, stained with NKX6.1 and ISL1 and analyzed by flow cytometry. […] To determine how amino acid supplementation affected yield, cell viability assays were performed.

viable cell density = assay: Cell viability assays / yield of Protocol 2 differentiation with amino acid supplementation in S1; assay type: cell-based
Protocol: as §2, §3

EZH2 = EZH2 (Homo sapiens, UniProt Q15910); details: cited from earlier work
Sequence of EZH2 (Q15910 whole entry, species assumed): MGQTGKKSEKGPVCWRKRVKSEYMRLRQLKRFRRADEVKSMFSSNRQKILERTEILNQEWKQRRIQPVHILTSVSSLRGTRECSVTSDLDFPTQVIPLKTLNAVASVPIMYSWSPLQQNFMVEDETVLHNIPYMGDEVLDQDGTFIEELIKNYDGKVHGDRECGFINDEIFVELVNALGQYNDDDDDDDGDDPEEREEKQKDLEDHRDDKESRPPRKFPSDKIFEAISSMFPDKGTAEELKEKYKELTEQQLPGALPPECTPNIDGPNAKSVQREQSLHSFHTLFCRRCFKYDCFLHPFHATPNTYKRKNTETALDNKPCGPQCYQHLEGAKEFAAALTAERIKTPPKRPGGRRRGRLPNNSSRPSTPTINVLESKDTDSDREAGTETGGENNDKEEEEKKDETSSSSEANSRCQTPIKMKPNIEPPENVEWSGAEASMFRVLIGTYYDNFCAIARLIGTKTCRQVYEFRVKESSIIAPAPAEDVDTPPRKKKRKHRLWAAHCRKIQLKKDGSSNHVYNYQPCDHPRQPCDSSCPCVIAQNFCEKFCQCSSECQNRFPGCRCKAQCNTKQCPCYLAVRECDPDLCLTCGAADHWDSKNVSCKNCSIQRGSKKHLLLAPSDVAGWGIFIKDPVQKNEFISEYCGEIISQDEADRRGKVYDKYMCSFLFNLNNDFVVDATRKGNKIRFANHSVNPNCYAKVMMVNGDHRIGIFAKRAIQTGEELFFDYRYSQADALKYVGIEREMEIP
Sequence of EZH2 (O75530 whole entry partner, species assumed): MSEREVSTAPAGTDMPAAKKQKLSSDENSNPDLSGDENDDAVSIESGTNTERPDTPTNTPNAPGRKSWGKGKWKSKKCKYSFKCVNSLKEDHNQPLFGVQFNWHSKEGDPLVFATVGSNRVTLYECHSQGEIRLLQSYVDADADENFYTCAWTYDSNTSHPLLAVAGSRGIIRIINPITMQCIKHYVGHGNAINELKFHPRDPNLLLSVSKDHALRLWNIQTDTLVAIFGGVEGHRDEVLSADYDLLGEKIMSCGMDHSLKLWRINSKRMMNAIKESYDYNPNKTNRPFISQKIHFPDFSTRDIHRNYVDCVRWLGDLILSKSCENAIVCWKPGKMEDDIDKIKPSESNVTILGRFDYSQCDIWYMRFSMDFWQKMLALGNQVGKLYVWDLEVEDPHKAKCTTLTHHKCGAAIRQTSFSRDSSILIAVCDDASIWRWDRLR
Sequence of EZH2 (Q15022 whole entry partner, species assumed): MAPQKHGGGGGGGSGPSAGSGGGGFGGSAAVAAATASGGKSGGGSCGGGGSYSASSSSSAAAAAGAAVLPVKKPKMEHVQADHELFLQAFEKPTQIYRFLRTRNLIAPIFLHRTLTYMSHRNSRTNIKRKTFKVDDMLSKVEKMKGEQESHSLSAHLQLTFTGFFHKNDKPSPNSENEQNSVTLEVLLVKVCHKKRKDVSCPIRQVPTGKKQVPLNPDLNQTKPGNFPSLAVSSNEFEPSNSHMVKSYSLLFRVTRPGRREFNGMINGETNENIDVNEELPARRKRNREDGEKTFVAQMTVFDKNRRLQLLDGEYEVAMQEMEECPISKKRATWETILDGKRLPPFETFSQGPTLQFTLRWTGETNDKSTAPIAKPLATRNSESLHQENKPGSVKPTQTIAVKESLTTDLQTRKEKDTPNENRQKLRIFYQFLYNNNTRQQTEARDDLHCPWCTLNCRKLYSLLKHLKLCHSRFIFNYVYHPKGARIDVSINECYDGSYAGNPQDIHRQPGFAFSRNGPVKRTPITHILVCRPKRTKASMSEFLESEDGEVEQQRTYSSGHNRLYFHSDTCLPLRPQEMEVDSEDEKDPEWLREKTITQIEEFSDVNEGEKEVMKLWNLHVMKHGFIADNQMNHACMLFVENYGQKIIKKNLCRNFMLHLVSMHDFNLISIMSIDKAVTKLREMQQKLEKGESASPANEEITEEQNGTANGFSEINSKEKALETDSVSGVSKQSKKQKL

Row | Compound | % of Sox17+/Oct3/4− cells (Sox17+/Oct4− cells) [%] | % of PDX1+/NKX6.1− cells (PDX1+/NKX6.1− cells) [%] | % of PDX1+/NKX6.1+ cells (PDX1+/NKX6.1+ cells) [%] | α-like cell development ([1]; S5C) | yield (viable cells at harvest) relative to the control (viable cell density) | amount of SC-β-cells / SC-β-cell composition versus control [1] | selectivity compared with GSK126 (EZH2) | selectivity over EZH1 (EZH2; EZH2 versus EZH1) [fold]
1 | N[C@@H](CO)C(=O)O [Protocol 2 + Serine, serine] | 72.9 | 89.1 | 72.1 | promoted α-like cell development | decreased yield | – | – | –
2 | glycine [Protocol 2 + Glycine] | 81.1 | 89.1 | 77.2 | – | decreased yield | increased | – | –
3 | CCCc1cc(C)[nH]c(=O)c1CNC(=O)c1cc(-c2ccc(N3CCN(C(C)C)CC3)nc2)cc2c1cnn2C(C)C [UNC1999] | – | – | – | – | – | – | less selective | –
4 | CC[C@H](C)n1cc(C)c2c(C(=O)NCc3c(C)cc(C)[nH]c3=O)cc(-c3ccc(N4CCNCC4)nc3)cc21 [GSK126] | – | – | – | – | – | – | – | 150
5 | aspartate [Protocol 2 + Aspartate] | 75.6 | 90 | 77.8 | – | – | increased | – | –
